Assay: In situ single-pass rat intestinal perfusion
Assay type: in vivo
Settings: other: in situ single-pass intestinal perfusion, rat intestine, n = 4, read-out: Effective permeability (Peff)
Description: The in situ single-pass intestinal effective permeabilities (Peff) of PMX, PMX/DL(1:1), PMX/DL(1:2), PMX/DL(1:1)-CD, and PMX/DL(1:2)-CD were investigated in rats. The rats were fasted overnight for 12–16 h with free access to water before the experiment and then anesthetized by intramuscular injection of tiletamine·HCl–zolazepam mixture (1:1 [w/w]; 40 mg/kg). With the animal in the supine position, the abdominal cavity was opened using a midline longitudinal incision, and the intestine (duodenum, jejunum, and ileum) was exposed and subsequently intubated at the two ends with a polypropylene perfusion tube connected to a peristaltic pump (Harvard Apparatus, Holliston, MA, USA). After covering the entire excised area with a cotton pad soaked with warm normal saline, the cannulated intestinal segments were flushed with blank perfusion buffer at 37 °C for 30 min, at a constant flow rate of 0.5 mL/min, to remove residual intestinal contents. Then, drug solutions of PMX, PMX/DL(1:1), PMX/DL(1:2), PMX/DL(1:1)-CD, or PMX/DL(1:2)-CD (equivalent to 100 μg/mL PMX) were perfused through the intestinal lumen at 37 °C and a constant flow rate of 0.2 mL/min. After allowing 30 min to achieve a steady-state, outlet perfusate was collected every 15 min for 120 min. In addition, to assess the reliability of the perfusion study, 100 μg/mL fluorescein diluted in perfusion buffer was perfused separately under the same conditions and the collected samples were analyzed at excitation/emission wavelengths of 494/512 nm using a microplate reader (PerkinElmer multimode plate reader; PerkinElmer, Waltham, MA, USA) as a low-permeability marker. During the experiment, all animals were kept on heated pads under a heat lamp to maintain a normal body temperature. At the end of the experiment, the lengths and radii of the cannulated intestinal segments were measured, taking care to avoid stretching them. The collected samples were then filtered using 0.45-μm PVDF filters and stored at −20 °C before analyses. The outlet concentration of PMX in the perfusate was analyzed by HPLC as described above. In addition, the errors caused by rat intestinal water absorption and secretion during perfusion were corrected by the net water flux (ratio of the […] perfusate flows, Qout/Qin) and the corrected drug concentration in perfusate for each formulation was calculated based on the following equation (i.e. gravimetric method): Cout,corr = Cout × (Qout/Qin), where Cout,corr is the corrected outlet PMX concentration (µg/mL), Cout is the PMX outlet concentration (µg/mL), Qin (mL/min) is the flow rate entering the intestine, and Qout (mL/min) is the measured perfusate exit flow (net weight/15 min, assumed density of 1.0 g/mL) for the specified time interval. After correction, the Peff was calculated using the equation: Peff = Qin/A × ln(Cout,corr/Cin), where A is the intestinal area available for absorption (2πrl) based on its length (l) and radius (r).

**Q.** With `O=C1OC2(c3ccc(O)cc3Oc3cc(O)ccc32)c2ccccc21` [fluorescein] as the compound, how does the Papp at 120 min, 100 μg/mL read?
**A.** 0.1 ± 0.2 ×10⁻⁶ cm/s

From paper PMC8567874, “Metronomic delivery of orally available pemetrexed-incorporated colloidal dispersions for boosting tumor-specific immunity” (Drug Delivery, 2021)
